Data published in PubChem BioAssay AID1963972 (Molecular Pharmacology Branch, DTP, NCI, 2024).

Tested on: 945468-187-T-J2-PDC spheroids viability
Assay: Anticancer human tumor 945468-187-T-J2-PDC patient-derived rectal carcinoma cell line growth inhibition [PI3K]
Details: spheroids with HUVEC and MSC; for IC50: curve of first compound; for viability, T/C: stronger effect = lower value
Summary of the method: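 Multi-cell spheroids combine tumor cells with HUVEC and human MSCs, treated with targeted agents alone or with inavolisib, alpelisib, duvelisib or copanlisib. Concentrations fall in half-log steps from at or near clinical Cmax, or from 10 microM where Cmax is unknown; viability read-out.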

[1] = second compound 0.0316 µM, first compound 0.0316 µM
[2] = second compound 0.0316 µM, first compound 0.1 µM
[3] = second compound 0.0316 µM, first compound 0.316 µM
[4] = second compound 0.0316 µM, first compound 1 µM
[5] = second compound 0.0316 µM, first compound 3.16 µM
[6] = second compound 0.0316 µM, first compound 10 µM
[7] = second compound 0.1 µM, first compound 0.0316 µM
[8] = second compound 0.1 µM, first compound 0.1 µM
[9] = second compound 0.1 µM, first compound 0.316 µM
[10] = second compound 0.1 µM, first compound 1 µM
[11] = second compound 0.1 µM, first compound 3.16 µM
[12] = second compound 0.1 µM, first compound 10 µM
[13] = second compound 0.316 µM, first compound 0.0316 µM
[14] = second compound 0.316 µM, first compound 0.1 µM
[15] = second compound 0.316 µM, first compound 0.316 µM
[16] = second compound 0.316 µM, first compound 1 µM
[17] = second compound 0.316 µM, first compound 3.16 µM
[18] = second compound 0.316 µM, first compound 10 µM
[19] = second compound 1 µM, first compound 0.0316 µM
[20] = second compound 1 µM, first compound 0.1 µM
[21] = second compound 1 µM, first compound 0.316 µM
[22] = second compound 1 µM, first compound 1 µM
[23] = second compound 1 µM, first compound 3.16 µM
[24] = second compound 1 µM, first compound 10 µM
[25] = second compound 3.16 µM, first compound 0.0316 µM
[26] = second compound 3.16 µM, first compound 0.1 µM
[27] = second compound 3.16 µM, first compound 0.316 µM
[28] = second compound 3.16 µM, first compound 1 µM
[29] = second compound 3.16 µM, first compound 3.16 µM
[30] = second compound 3.16 µM, first compound 10 µM
[31] = second compound 10 µM, first compound 0.0316 µM
[32] = second compound 10 µM, first compound 0.1 µM
[33] = second compound 10 µM, first compound 0.316 µM
[34] = second compound 10 µM, first compound 1 µM
[35] = second compound 10 µM, first compound 3.16 µM
[36] = second compound 10 µM, first compound 10 µM
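Note: spheroids exposed to compounds for seven days before reading.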

SMILES: CC1(C)CCC(CN2CCN(c3ccc(C(=O)NS(=O)(=O)c4ccc(NCC5CCOCC5)c([N+](=O)[O-])c4)c(Oc4cnc5[nH]ccc5c4)c3)CC2)=C(c2ccc(Cl)cc2)C1 + CC(Nc1ncnc2nc[nH]c12)c1cc2cccc(Cl)c2c(=O)n1-c1ccccc1
- IC50 (second compound 0.0316 µM): > 10 µM
- IC50 (second compound 0.1 µM): > 10 µM
- IC50 (second compound 0.316 µM): > 10 µM
- IC50 (second compound 1 µM): > 10 µM
- IC50 (second compound 3.16 µM): > 10 µM
- IC50 (second compound 10 µM): > 10 µM
- viability, T/C [1]: 91.7%
- viability, T/C [2]: 92.2%
- viability, T/C [3]: 99.8%
- viability, T/C [4]: 98.2%
- viability, T/C [5]: 94%
- viability, T/C [6]: 81%
- viability, T/C [7]: 82.3%
- viability, T/C [8]: 75.7%
- viability, T/C [9]: 84.5%
- viability, T/C [10]: 78.6%
- viability, T/C [11]: 96.5%
- viability, T/C [12]: 79.1%
- viability, T/C [13]: 97.1%
- viability, T/C [14]: 93.4%
- viability, T/C [15]: 93.2%
- viability, T/C [16]: 100%
- viability, T/C [17]: 119%
- viability, T/C [18]: 80.5%
- viability, T/C [19]: 97.4%
- viability, T/C [20]: 87.8%
- viability, T/C [21]: 103%
- viability, T/C [22]: 92.9%
- viability, T/C [23]: 107%
- viability, T/C [24]: 63.2%
- viability, T/C [25]: 96%
- viability, T/C [26]: 115%
- viability, T/C [27]: 84.8%
- viability, T/C [28]: 134%
- viability, T/C [29]: 102%
- viability, T/C [30]: 86.6%
- viability, T/C [31]: 94.5%
- viability, T/C [32]: 81.5%
- viability, T/C [33]: 104%
- viability, T/C [34]: 124%
- viability, T/C [35]: 97.7%
- viability, T/C [36]: 84.8%

SMILES: C[C@@H](NC(=O)c1ncnc(N)c1Cl)c1ncc(C(=O)Nc2cc(C(F)(F)F)c(Cl)cn2)s1 + CC(Nc1ncnc2nc[nH]c12)c1cc2cccc(Cl)c2c(=O)n1-c1ccccc1
- IC50 (second compound 0.0316 µM): > 10 µM
- IC50 (second compound 0.1 µM): > 10 µM
- IC50 (second compound 0.316 µM): > 10 µM
- IC50 (second compound 1 µM): > 10 µM
- IC50 (second compound 3.16 µM): > 10 µM
- IC50 (second compound 10 µM): > 10 µM
- viability, T/C [1]: 83.6%
- viability, T/C [2]: 82.8%
- viability, T/C [3]: 113%
- viability, T/C [4]: 106%
- viability, T/C [5]: 109%
- viability, T/C [6]: 86.2%
- viability, T/C [7]: 119%
- viability, T/C [8]: 108%
- viability, T/C [9]: 85.5%
- viability, T/C [10]: 68.7%
- viability, T/C [11]: 121%
- viability, T/C [12]: 104%
- viability, T/C [13]: 119%
- viability, T/C [14]: 90.9%
- viability, T/C [15]: 99.3%
- viability, T/C [16]: 92.2%
- viability, T/C [17]: 93.3%
- viability, T/C [18]: 80.7%
- viability, T/C [19]: 92.7%
- viability, T/C [20]: 108%
- viability, T/C [21]: 81.3%
- viability, T/C [22]: 95%
- viability, T/C [23]: 83.1%
- viability, T/C [24]: 90.1%
- viability, T/C [25]: 103%
- viability, T/C [26]: 110%
- viability, T/C [27]: 77.7%
- viability, T/C [28]: 124%
- viability, T/C [29]: 110%
- viability, T/C [30]: 104%
- viability, T/C [31]: 83%
- viability, T/C [32]: 123%
- viability, T/C [33]: 110%
- viability, T/C [34]: 84.4%
- viability, T/C [35]: 119%
- viability, T/C [36]: 108%
